Data as given in a melting point compilation (Tetko et al.; mined from patent text by program, amines drawn as free bases though some values may be those of a salt).

| melting point [°C] | SMILES |
| --- | --- |
| 65 | Cc1ccc(OCC(=O)c2ccccc2)cc1 |
| 212 to 215 | CC(/C=C/c1c(C)sc(C)c1C)=C(F)\C=C\C(C)=C\C(N)=O |
| 180 to 182 | O=C(O)C1CCc2c(c3ccccc3n2C(=O)c2cccs2)C1 (stereo not given) |
| 151 to 152 | COC(=O)C(Cl)=Cc1cc(-n2c(OC)nc(C(F)(F)F)cc2=O)ccc1Cl |
| 157 to 158 | COc1cc(C(C)C)c2c(c1)S(=O)(=O)N(COC(=O)c1cc(C)no1)C2=O |
| 112 to 115 | CC(C)(C)OC(=O)N[C@@H](Cc1ccc(C(=N)NC(=O)OCc2ccccc2)cc1)C(=O)O |
| 107 to 109 | O=c1[nH]c(=O)n([C@@H]2O[C@H](CO)[C@@H](O)[C@H]2O)cc1/C(I)=C\I |
| 126 to 127 | CCOC(=O)C1Cc2ccc(C(=O)c3ccc(NC(C)=O)c(Cl)c3)cc2C1 (stereo not given) |
| 159 to 161 | Cc1c(CC(=O)O)c2cc(O)c(F)cc2n1C(=O)c1ccccc1 |
| 208 to 211 | COc1ccc(CNC(=O)c2cc3c(=O)n(CCC(=O)c4ccccc4)c(=O)n(C)c3s2)cc1 |
| 144 to 146 | CC(=O)SCCC(=O)N1C(C(=O)O)CC(=O)N1c1ccccc1 (stereo not given) |
| 226 to 227 | Cc1nnc(C2=C(O)c3ccccc3S(=O)(=O)N2C)o1 |
| 74 to 80 | Cc1cc2c(c(C=O)c1C)C(C)(C)CCC2(C)C |
| 85 to 87 | CN(C(=O)OC(C)(C)C)c1ccc(C#CCCCOS(C)(=O)=O)cc1 |
| 248 to 249 | COC1=C(C(=O)c2ccc(C)cc2)C(c2ccc(C(C)C)cc2)N(c2ccc(C)nn2)C1=O (stereo not given) |
| 109 | CCCn1cnc2c1c(=O)n(CC(C)(O)C#CCN(CC)CC)c(=O)n2C (stereo not given) |
| > 275 | Cc1nn(C)c2nc(N)nc(N)c2c1=O |
| 49 to 51 | CC(=C(Cl)Cl)c1ccccc1Nc1ccccc1C |
| 180 to 182 | CCn1cc(C(=O)NCc2ccc(Cl)cc2)c(=O)c2cc(C#CCOC(=O)CCC(=O)O)sc21 |
| 146 to 147 | COCCOC(=O)C1=C(C(F)F)NC(C)=C(C(=O)OC(C)C)C1c1cccc([N+](=O)[O-])c1 (stereo not given) |
| 138 to 145 | CC(C)(C)c1cc(CN)nn1-c1ccc(S(C)(=O)=O)cc1 |
| 108 to 110 | CCCc1nn(C)c2c(=O)n(CCOc3ccc(OC(C)(C)C(=O)O)cc3)c(CC)nc12 |
| 138 to 140 | CCc1nsc(C(=O)NC(C)C)c1C(=O)O |
| 135 to 137 | CC(C)=CC(=O)Nc1c(C(O)(C(F)(F)F)C(F)(F)F)ccc2ccccc12 |
| 79 to 83 | COc1ccc(C2=NN(C3CCN(C(=O)CCCNC(=O)OC(C)(C)C)CC3)C(=O)[C@@H]3CC=CC[C@H]23)cc1OC |
| 138 to 140 | CC(=O)OC1Oc2ccc(C#N)cc2C1(C)C (stereo not given) |
| 111 to 113 | CCOC(=O)c1cc(CBr)cc(C(=O)OCC)c1 |
| 65 to 68 | CC(C)(C)OC(=O)C(CCCCNC(=O)c1ccc(Cl)c(S(N)(=O)=O)c1)NC1Cc2ccccc2C1 (stereo not given) |
| 63 to 64.5 | COC(=O)CCc1cc(C(C)(C)C)c(O)c(C(C)(C)C)c1 |
| 76.5 to 77.6 | CCn1nc(-c2ccc(OC)cc2)cc(C(=O)OC)c1=O |

More lines, now with the values behind:

| SMILES | melting point [°C] |
| --- | --- |
| CN1C(=O)CC[C@]2(C)c3ccc(C#Cc4ccccc4)cc3CC[C@@H]12 | 205 to 208 |
| Cn1ncnc1COc1nc2c(-c3ccccc3)nncn2c1-c1ccccc1 | 179 |
| Cc1ccc2nc(Cl)c(Cl)nc2c1 | 112 to 115 |
| CCCC1CCC(c2cc3c4c(c(F)c(F)c3o2)OCCC4)CC1 (stereo not given) | 89 |
| O=C1c2ccc(=O)[nH]c2CC2CCCCC12 (stereo not given) | 301 to 303 |
| NC(=O)CCNC(=O)c1cccc(-c2cccc3oc(Cc4cccc(C(F)(F)F)c4)cc23)c1 | 155 to 156 |
| CCOC(=O)Cc1nc(-c2ccc(Cl)cc2)oc1-c1ccco1 | 105 to 106 |
| COc1ccc(-c2c(Cl)nc(C)nc2NS(=O)(=O)c2ccc(OC)cc2)cc1 | 152 to 154 |
| O=C(O)Cc1c(C(=O)c2ccc(F)cc2)[nH]c2cc(Cl)ccc12 | 181 to 183 |
| CS(=O)(=O)Nc1c(CC(=O)O)cccc1Oc1ccccc1Cl | 159 to 163 |
| COc1ccc(-c2[nH]nc3c2C(=O)c2c(NC(=O)CCl)cccc2-3)cc1 | 274 |
| O=C(NCCc1ccccc1Cl)c1c(Cl)ccc2nc(N3CCC(C(=O)O)CC3)ccc12 | 250 to 253 |
| O=[N+]([O-])c1cc(Cl)c2cccnc2c1O | 201 to 202 |
| N#Cc1nn(-c2c(Cl)cc(C(F)(F)F)cc2Cl)c(N)c1-c1ccccc1 | 198 to 199 |
| O=C(O)[C@H]1[C@H](CS)N(Cc2ccccc2)C(=O)N1Cc1ccccc1 | 159 to 160 |
| O=C(CCNC(=O)[C@H](Cc1ccc(-c2ccccc2)cc1)NCP(=O)(Oc1ccccc1)Oc1ccccc1)OCc1ccccc1 | 83 to 84 |
| CN(C)C(=NC1CCCCC1)C(N)=S | 116 to 120 |
| C[C@@H]1CO[C@]2(CC[C@@H](OCc3ccccc3)C2)N1C(=O)c1ccccc1 | 85 to 86 |
| CCCCc1nnc(-c2ccncc2)n1Cc1ccc(N)cc1 | 63.5 to 64.5 |
| CNC(Cc1ccccc1)c1nc(C(=O)NCc2ccccc2)no1 (stereo not given) | 128 |
| Cc1cc(-c2nc3cccnn3c2-c2ccnc(NC(=O)c3ccc4ncccc4c3)c2)ccc1F | 210 to 211 |
| CCC(CC)Sc1cc(S(N)(=O)=O)c(N)cc1Cl | 118 to 120 |
| O=C(CCC1CCNCC1)c1cc2c3c(c1)CCN3C(=O)CC2 | 114 to 115 |
| Cc1ccc(N2N=C3c4cc(OCCCN(C)C)ccc4CCC3CC2=O)cc1 (stereo not given) | 159 to 162 |

| SMILES | melting point [°C] |
| --- | --- |
| CC(=O)Nc1c(C(=O)c2ccc3ccccc3c2)[nH]c2cc(Cl)ccc12 | 167 to 169 |
| CN1C(=O)C(c2cccc(-c3cncnc3)c2)(c2cscn2)N=C1N (stereo not given) | 234 to 237 |
| Nc1ncc(Cl)c(CN2CCCC2)c1Cl | 98 to 101 |
| COc1cccc(C(O)C2CCN(CCc3ccc(F)cc3)CC2)c1OC (stereo not given) | 114 to 116 |
| CC(C)n1c(=O)nc(-c2ccc(N(C)C)cc2)c2cc3c(cc21)OCO3 | 240 to 245 |
| C#CC(Oc1cc(C(=O)OC)cc(OC)c1OC)C1CC1 (stereo not given) | 93 to 94 |
| CS(=O)(=O)c1ccc(-c2oc(-c3ccccc3)nc2-c2ccc(F)cc2)cc1 | 204 to 205 |
| N=C(NC1CC1)c1cc2c(cn1)[nH]c1ccccc12 | 253 |
| COc1cc(OC)c2c(c1)S(=O)(=O)NC2=O | 258 |
| O=C(O)CCCCNC(=O)c1ccc(Cl)cc1O | 140 to 141 |
| O=C(NCCCCCn1ccnc1)c1cc2cc(Cl)ccc2[nH]1 | 214 to 216 |
| O=C(CNc1ccc2[nH]c(=O)oc2c1)N1CCC(Cc2ccccc2)CC1 | 204 to 206 |
| OC1(C#Cc2ccc(-c3ccccn3)cc2)CN2CCC1CC2 (stereo not given) | 205 to 206 |
| CCOC(=O)c1c2ccc(Cl)cc2c(-c2ccccc2)n1CCCN(C)c1ccccc1 | 108 to 110 |
| OC1(CNc2nc3ccccc3s2)CCN(CC2COc3ccccc3O2)CC1 (stereo not given) | 176 |
| Clc1ncccc1OCC#CI | 164 to 165 |
| COc1ccc(-c2nc3ccc(CBr)cc3o2)cc1 | 137 to 138 |
| Cc1ncc(CNC(=O)c2ccc3n2Cc2ccccc2N(C(=O)CSc2ccc(Br)cc2)C3)c(CO)c1O | 199 to 200 |
| N#Cc1c[nH]c(-c2ccccc2)c1 | 150 to 151 |
| CCOC(=O)Nc1cnc(NCCCOc2cccc(CN3CCCCC3)c2)[nH]c1=O | 171 to 173 |
| CC(=NN=c1[nH]cccc1Cl)C(F)(F)F | 64 to 64.5 |
| CCOC(=O)c1cccc(NC(=O)Oc2ccccc2)c1 | 138 |
| CC(C)(C)c1cc(SCCOC(=O)c2cc(C(C)(C)C)c(OC(=O)c3cc(C(C)(C)C)c(O)c(C(C)(C)C)c3)c(C(C)(C)C)c2)cc(C(C)(C)C)c1O | 168 to 170 |
| CN(CCOc1ccc(CC2SC(=O)NC2=O)cc1)C(=O)Nc1ccccc1 (stereo not given) | 88 to 90 |

| SMILES | melting point [°C] |
| --- | --- |
| O=C1NCC(=O)c2ncn(C3OC(COC(=O)c4ccccc4)C(OC(=O)c4ccccc4)C3OC(=O)c3ccccc3)c2N1 (stereo not given) | 252 |
| Cc1c(Cl)ccc2c1[nH]c1c(CO)cccc12 | 187 |
| CCN(CC)C(=O)NC1CC2c3cccc4[nH]c(CCc5ccc(OC)cc5)c(c34)CC2N(C)C1 (stereo not given) | 147 to 149 |
| ClC(Cl)(Cl)c1nc(NCc2ccccc2)nc(C(Cl)(Cl)Cl)n1 | 96.5 to 97 |
| O=CN(O)C(CC1CCC2(CC1)OCCO2)CS(=O)(=O)c1ccc(Oc2ccc(OC(F)(F)F)cc2)cc1 (stereo not given) | 140 to 141 |
| CCc1ccc(NS(=O)(=O)c2ccc(N3CCNC3=O)cc2)cc1 | 195 to 196 |
| O=c1c(CCc2cccnc2)cc2cccnc2n1-c1cccc([N+](=O)[O-])c1 | 221 to 223 |
| O=C(O)c1cccc(NC(=O)C(CSC(=O)c2ccccc2)Cc2ccccc2)c1 (stereo not given) | 182 to 184 |
| OC(c1ccccn1)c1cc2ccncc2[nH]1 (stereo not given) | 166 to 169 |
| NNC(=O)C1=Nc2cccc3c(=O)[nH]nc(c23)N1 | > 300 |
| COc1ccccc1NC(C(N)=O)c1c(Cl)cccc1Cl (stereo not given) | 192 |
| Fc1ccccc1NC(=S)N1CCN(c2cnccn2)CC1 | 151 to 153 |
| O=C(NCC1CC1)C(c1ccccc1)c1ccccc1 | 130 |
| COc1ccc(C=N[C@H]2COc3c(F)ccc(OC)c3C2)cc1 | 96.8 to 97.3 |
| Oc1ncc(-c2ccc(Cl)cc2)cn1 | 324 to 327 |
| COc1cc(O)nc(C2CC2)n1 | 186 |
| Cc1nn(-c2ccccn2)c2nc3ccccc3c(N3CCOCC3)c12 | 203 to 205 |
| O=C1Nc2ccccc2Oc2c1csc2Cl | 224 to 227 |
| FC(F)(F)c1ccc(-c2cc(Oc3ccc4cccnc4c3)nnc2Oc2ccc3cccnc3c2)cc1 | 158 to 162 |
| CN1CCC(C2=C(C#N)C(c3cccc(C#N)c3Br)c3c[nH]nc3N2)CC1 (stereo not given) | > 270 |
| Cc1ccccc1CC(=O)c1c(O)c2cccnc2n(-c2cccc(OC(F)(F)F)c2)c1=O | 132 to 134 |
| C=CCOc1ccc(C(=O)N[C@@H](C)c2cccc3ccccc23)cc1 | 141 to 143 |
